Test results from patent publication US20250269043A1, “TARGETED BIFUNCTIONAL DEGRADERS” (YALE UNIVERSITY, priority 2019, published 2025).

How the values were obtained:
human MIF = target: T1, human MIF (Homo sapiens, UniProt P14174); assay: Depletion of injected recombinant human MIF from serum in mice; assay type: in vivo; set-up: injected into mice; conditions: for depletion of human MIF protein from serum: 30 minutes, FIG. 135
T1 sequence (P14174 2-115 limits assumed): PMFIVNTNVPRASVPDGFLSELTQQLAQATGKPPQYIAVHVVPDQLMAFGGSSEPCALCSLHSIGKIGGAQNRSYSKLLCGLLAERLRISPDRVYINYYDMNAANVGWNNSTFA
Procedure: In vivo human MIF depletion experiments were undertaken to determine whether MIF-GN3 can mediate the depletion of injected recombinant human MIF from serum in mice. Mice were injected with five μg of the human MIF protein. In this experiment, one group of mice was also injected with a single 10 mpk dose of MLF-GN3 along with human MIF protein. It was observed that after four hours, the average level of human MIF in serum in the PBS-treated mice was 1.76 ng/mL (FIG. 134). In mice treated with 10 mpk MIF-GN3, however, the concentration of human MIF in serum was 0.68 ng/mL. One day after the initial injection, human MIF levels had reached background levels for both conditions. […] It was hypothesized that, due to the short half-life of human MIF in serum, investigating human MIF levels at earlier time points may be more informative.
Next, an experiment was performed to determine whether MIF-GN3 could enhance MIF clearance at time points earlier than four hours. Mice were coinjected with recombinant human MIF and 10 mpk MIF-GN3 via either i.p. or i.v. routes. For the PBS control arms, human MIF was injected with PBS. It was observed that in the absence of MIF-GN3, there was a spike in huMIF levels in circulation after 30 minutes (FIG. 135). In the presence of MIF-GN3, however, levels of MIF protein remained low at 30 minutes and no spike in its concentration was observed. By two hours, the levels of human MIF in circulation decreased to background levels.
In a further experiment, whether an inhibitor of the MIF protein (3w) is able to mediate the protein's depletion from serum was determined. A bifunctional molecule that mediates the depletion of α-DNP antibody from serum was also assayed as a negative control. Neither of these molecules was expected to mediate the formation of a ternary complex between human MIF protein and ASGPR.

PC3 cells = assay: PC3 human prostate cancer cell tumor model in mice; assay type: in vivo; conditions: for tumor growth: FIG. 138
Procedure: The ability of MIF-GN3 to mediate the depletion of MIF in a therapeutically relevant disease model was investigated. […] An experiment was conducted to determine whether the bifunctional molecule MIF-GN3 can deplete sufficient human MIF from serum to slow PC3 tumor growth. Mice were injected with an aliquot of PC3 cells, and the size of the resultant tumors as well as the levels of human MIF in serum were monitored over five weeks. […] Five weeks after the initial PC3 cell injection, the first of the mice reached maximal tumor size ([…]) and was sacrificed (FIG. 138). […] The decrease in human MIF levels mediated by MIF-GN3 is consistent with a mechanism of action in which MIF-GN3 mediates the depletion and degradation of circulating MIF protein. While the α-MIF antibody would not necessarily be expected to decrease the levels of human MIF, it is possible that the antibody mediates MIF neutralization in a manner which masks its signal as determined by ELISA. Alternatively, the α-MIF antibody may mediate depletion or degradation of huMIF by some endocytic mechanism. Another possible explanation is that the α-MIF antibody decrease serum levels of active human MIF to such an extent at early time points that PC3 cells proliferate much more slowly, and therefore fewer cells are actively secreting human MIF.
Mice were sacrificed when their tumor volumes reached 1000 mm^3. […] At this same time point, less than 25% of the mice in any other arm had survived.

HepG2 cells [1] = assay: Subcellular localization and degradation of α-DNP antibody endocytosed with DNP-GN3 (microscopy, western blotting); assay type: cell-based, human
Procedure: In addition, western blotting with an antibody directed to Alexa Fluor 488 was used to determine if endocytosed fluorescently labeled α-DNP antibodies are degraded in vitro. […] Signal arising from Alexa Fluor 488 in cell lysates was associated with only full-length antibody after two hours of incubation. After six hours, a lower molecular weight fluorophore-associated protein fragment between 37 and 50 kDa began to appear. An additional protein fragment with a molecular weight between 25 and 37 kDa was observed after 24 hours. […] Together with the above immunofluorescence studies showing the colocalization of α-DNP antibody-derived fluorescence with lysosomes, these studies support that α-DNP antibody degradation is mediated by lysosomal proteases. Lysosomal degradation is further consistent with a mechanism dependent on ASGPR.

α-DNP antibody = assay: In vivo depletion of α-DNP antibody from serum in mice (ELISA); conditions: for serum α-DNP antibody levels compared to PBS: FIG. 94; for α-DNP antibody depleted from serum 24 hours after a single dose: vehicle control 24%
Procedure: FIG. 94 illustrates that serum levels of α-DNP antibody decrease more rapidly following repeated treatment with DNP-GN3. Serum antibody levels were measured using an ELISA assay. Each experimental group contained three mice. Statistical differences in experiments involving in vivo depletion of α-DNP antibody were assessed by repeated measures two-way ANOVA with Tukey's tests for post-hoc comparison of simple effects between each of the treatment groups and PBS.
Single doses of DNP-GN3 were also found to be efficacious at mediating α-DNP antibody depletion, albeit less effectively than daily dosing (FIG. 96). […] Therefore, it was concluded that DNP-GN3 is able to mediate the depletion of a monoclonal antibody from serum, and functions across a wide range of target protein concentrations and dosing regimens.
DNP-GN3 was also found to be efficacious in depleting polyclonal α-DNP antibody from serum collected from mice immunized with DNP-keyhole limpet haemocyanin (KLH) (FIG. 97). […] Thus, the small molecule DNP-GN3 is not restricted in function to only monoclonal mouse antibodies, but is also effective at removing polyclonal α-DNP antibodies from circulation in mice.

HepG2 cells [2] = assay: DNP-GN3-mediated endocytosis of fluorescently labeled α-DNP antibody by adherent HepG2 cells; assay type: cell-based, human; conditions: six and twelve hours; FIG. 87A-87B
[3] = Pharmacokinetics of MIF-GN3 in male nude mice; assay type: in vivo; conditions: one mpk dose
Text: The ability of MIF-GN3 to mediate the depletion of injected human MIF from serum in mice was studied. First, the pharmacokinetics of the bifunctional molecule were investigated.

[4] = MIF-GN3 at 10 mpk, control arms DNP-GN3 and 3w

CC(=O)NC1C(OCCOCCOCCNC(=O)CCOCC(COCCC(=O)NCCOCCOCCOC2OC(CO)C(O)C(O)C2NC(C)=O)(COCCC(=O)NCCOCCOCCOC2OC(CO)C(O)C(O)C2NC(C)=O)NC(=O)CNC(=O)COCCOCCOCCNc2ccc([N+](=O)[O-])cc2[N+](=O)[O-])OC(CO)C(O)C1O (centres unmarked) [DNP-GN3]
human MIF concentration in serum compared to the PBS control (human MIF; control molecules injected along with human MIF, FIG. 136): no significant decreases | tumor growth (PC3 cells; [4]): not found to decrease tumor growth | colocalization of endocytosed α-DNP antibody with lysosome membrane protein LAMP2 (HepG2 cells [1]; after 12 hours, FIG. 91B): strong colocalization | degradation of endocytosed α-DNP antibody (western blot for Alexa Fluor 488) (HepG2 cells [1]; cell lysates, 2 to 24 hours, FIG. 92A): endocytosed α-DNP antibody is degraded in HepG2 cells | serum α-DNP antibody levels compared to PBS (α-DNP antibody; 200 μg monoclonal mouse IgG2 α-DNP antibody, daily and twice-daily 1 mpk, 21 days, nude mice): significantly reduced | α-DNP antibody depleted from serum 24 hours after a single dose (α-DNP antibody; 1 mpk, FIG. 96): 52% | α-DNP antibody depleted from serum 24 hours after a single dose (α-DNP antibody; 10 mpk, FIG. 96): 34% | α-DNP antibody depletion after a single dose (α-DNP antibody; 100 mpk, FIG. 96): Significant depletion | degradation of injected anti-DNP IgG antibodies in mouse serum (α-DNP antibody; i.p. injection, FIG. 79A): can induce degradation | serum α-DNP antibody levels compared to PBS (α-DNP antibody; initial antibody dose of 500 μg, daily treatment): significant decrease | depletion of polyclonal α-DNP antibody from serum compared to PBS (α-DNP antibody; mice immunized with DNP-KLH, daily treatment, each time point, FIG. 97): significantly more polyclonal α-DNP antibody was removed | intracellular fluorescence of adherent HepG2 cells (HepG2 cells [2]): dependent on the concentration of both DNP-GN3 and α-DNP antibody

CC(=O)N[C@H]1[C@H](OCCOCCOCCNC(=O)CCOCC(COCCC(=O)NCCOCCOCCO[C@@H]2O[C@H](CO)[C@H](O)[C@H](O)[C@H]2NC(C)=O)(COCCC(=O)NCCOCCOCCO[C@@H]2O[C@H](CO)[C@H](O)[C@H](O)[C@H]2NC(C)=O)NC(=O)CNC(=O)CCCOc2ccc3nc(-c4cn(-c5ccc(O)c(F)c5)nn4)ccc3c2)O[C@H](CO)[C@H](O)[C@@H]1O [MIF-GN3]
depletion of human MIF protein from serum (human MIF; 10 mpk coinjected i.p.): significant depletion | depletion of human MIF protein from serum (human MIF; 10 mpk coinjected i.v.): significant depletion | human MIF levels in serum compared to the PBS control (human MIF; one mpk, 40 and 60 minute time points, FIG. 136): significant decrease | concentration of human MIF in serum (human MIF; single 10 mpk dose with five μg human MIF, after four hours, PBS-treated 1.76 ng/mL, difference not significant, FIG. 134): 0.68 ng/mL | human MIF levels in serum compared to the PBS control (human MIF; ten mpk, 40 and 60 minutes, FIG. 136): significant decreases | half-life in serum [3]: 25.8 min | time of maximum plasma concentration [3]: 15 min | levels of human MIF protein in the serum (PC3 cells; MIF-GN3 1 mpk, α-MIF antibody arm, FIG. 139): decreased levels | tumor growth (PC3 cells; [4]): not found to decrease tumor growth | tumor growth (PC3 cells; MIF-GN3 at a dose of 1 mpk, α-MIF antibody arm): delay in tumor growth | survival (PC3 cells; eight weeks after the initial PC3 cell injection, MIF-GN3 1 mpk, FIG. 140): 80%
